Data published in patent US4966914A, “Oculoselective beta-blockers as antiglaucoma agents” (E. I. Du Pont de Nemours and Company, priority 1988, dated 1990).
Read-outs that look alike come from different tables or passages of the source.

How the values were obtained:
ATRIA = target: T1, ATRIA (Cavia porcellus, UniProt H0W3H1); experiment: In vitro potency (pA2), beta-blocking, atria; assay type: cell-based
T1 construct: ATRIA; from tissue
Method: (§1) The in vitro potency (pA2), in vivo potency and duration of action (DOA) of the compounds of the present invention are recorded in Tables 2 to 4. These pharmacological activities were determined using the methods described in U.S. patent 4,582,855 issued Apr.

beta-blocking effects = experiment: In vivo beta-blocking potency and duration of action (DOA); details: Tables 2 and 4
Method: as §1

[1] = tested on: isoproterenol-induced changes in heart rate or diastolic blood pressure; experiment: Effect on systemic beta-blockade upon topical administration (isoproterenol-induced changes in heart rate or diastolic blood pressure); assay type: in vivo, Mongrel dogs; details: for Diastolic blood pressure (DBP) / Heart rate (HR): Table 1, 0.5%
Method: Mongrel dogs were anesthetized and control readings were made at -45 and -30 minutes. Following the -30 minute reading, an infusion of isoproterenol (0.5 μg/kg/min) was begun and maintained during the course of the experiment. Two readings of pretreatment isoproterenol responses were made at […] and at zero minutes.
At zero minutes, a 50 μL sample of test compound was administered topically. […] Heart rate was obtained directly from the strip chart recording.

[2] = Ocular bioavailability in rabbits; assay type: in vivo, New Zealand White Rabbits; details: for Tmax: rabbit, topical or ocular
Method: The ocular bioavailability of Timolol and compound 1 (monopivaloyl ester prodrug of compound 2) was evaluated in New Zealand White Rabbits. Fifty μL of a solution of 0.25% Timolol or 0.5% compound 1 (both in the same vehicle) were administered onto the cornea of both eyes of 48 rabbits (24 rabbits/compound). At 5, 15, 30, 60, 120, 180, 240, and 360 minutes after dosing, 3 rabbits (6 eyes)/compound were killed. The cornea, aqueous humor (AH), iris-ciliary body complex (I-CBC) were quickly removed from the eyes, weighed and processed to determine tissue levels of Timolol or compound 1 and compound 2.

[3] = Tables 2 and 4, read-out: In-vitro potency pA2 (converted)
[4] = Table 3, atria, read-out: pA2 ATRIA (converted)
[5] = 50 μL, 0.25% solution, single topical application
[6] = 15 min post-treatment, isoproterenol infusion
[7] = 30 min post-treatment, isoproterenol infusion
[8] = 45 min post-treatment, isoproterenol infusion
[9] = 60 min post-treatment (dose), isoproterenol infusion
[10] = 75 min post-treatment, isoproterenol infusion
[11] = 90 min post-treatment, isoproterenol infusion
[12] = 105 min post-treatment, isoproterenol infusion
[13] = 120 min post-treatment (dose), isoproterenol infusion
[14] = 135 min post-treatment, isoproterenol infusion
[15] = 150 min post-treatment, isoproterenol infusion
[16] = 165 min post-treatment, isoproterenol infusion
[17] = 180 min post-treatment, isoproterenol infusion
[18] = Table 1 summary, given as "down"

T1 sequence (H0W3H1 1-470): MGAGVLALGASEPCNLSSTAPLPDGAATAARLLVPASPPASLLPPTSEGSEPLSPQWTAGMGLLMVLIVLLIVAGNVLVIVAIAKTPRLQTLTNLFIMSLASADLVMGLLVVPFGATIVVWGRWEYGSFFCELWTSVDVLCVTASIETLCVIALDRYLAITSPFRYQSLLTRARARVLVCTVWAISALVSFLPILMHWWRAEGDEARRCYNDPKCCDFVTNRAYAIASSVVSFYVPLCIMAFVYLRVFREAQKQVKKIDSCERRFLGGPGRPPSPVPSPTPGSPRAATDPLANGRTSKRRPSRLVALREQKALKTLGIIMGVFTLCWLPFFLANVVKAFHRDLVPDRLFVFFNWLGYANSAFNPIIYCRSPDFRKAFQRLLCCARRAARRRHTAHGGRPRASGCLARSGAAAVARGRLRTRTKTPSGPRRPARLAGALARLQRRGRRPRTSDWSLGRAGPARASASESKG

With `Cc1cc(O)c(O)cc1C(=O)OCC(O)CNC(C)(C)CNC(=O)C(C)C` (stereo not drawn) the Kb (ATRIA; [3]) was 6.31 nM and the “DOA (duration of action)” value (beta-blocking effects) was 42 min.

For `Cc1cc(O)c(O)cc1C(=O)OCC(O)CNC(C)(C)CNC(N)=O` (stereo not drawn) [Me NH2], the Kb (ATRIA; [4]) was 1.26 nM.

Work on `Cc1cc(O)c(O)cc1C(=O)OCC(O)CNC(C)(C)CNC(=O)c1ccccc1` (stereo not drawn) yielded a Kb (ATRIA; [4]) of 20 nM.

In the case of `CCC(=O)NCC(C)(C)NCC(O)COC(=O)c1cc(O)c(O)cc1C` (stereo not drawn), the Kb (ATRIA; [4]) is reported as 10 nM.

For `CC(C)(C)NC[C@H](O)COc1nsnc1N1CCOCC1` [Timolol, reference compound], the “Antagonism of diastolic blood pressure response to isoproterenol” value [1, 5] was “long lasting antagonism”, the “Effect on heart rate response to isoproterenol” value [1, 5] was “significant inhibitory effect” and the “Diastolic blood pressure response to isoproterenol” value ([1]; 50 μL, 0.25% solution, single topical application, from-to) was 72-107 mmHg. For the same compound, the “Diastolic blood pressure (DBP)” value ([1]; 0 min, ISO only) was 72 mmHg, the “Heart rate (HR)” value ([1]; 0 min, ISO only) was 197 bpm and the “Diastolic blood pressure (DBP)” value [1, 6] was 93 mmHg. For the same compound, the “Heart rate (HR)” value [1, 6] was 175 bpm, the “Diastolic blood pressure (DBP)” value [1, 7] was 94 mmHg and the “Heart rate (HR)” value [1, 7] was 158 bpm. For the same compound, the “Diastolic blood pressure (DBP)” value [1, 8] was 96 mmHg, the “Heart rate (HR)” value [1, 8] was 155 bpm and the “Diastolic blood pressure (DBP)” value [1, 9] was 99 mmHg. The “Heart rate (HR)” value [1, 9] was 157 bpm, the “Diastolic blood pressure (DBP)” value [1, 10] was 102 mmHg and the “Heart rate (HR)” value [1, 10] was 157 bpm. For the same compound, the “Diastolic blood pressure (DBP)” value [1, 11] was 103 mmHg, the “Heart rate (HR)” value [1, 11] was 152 bpm and the “Diastolic blood pressure (DBP)” value [1, 12] was 104 mmHg. The “Heart rate (HR)” value [1, 12] was 153 bpm, the “Diastolic blood pressure (DBP)” value [1, 13] was 105 mmHg and the “Heart rate (HR)” value [1, 13] was 157 bpm. The “Diastolic blood pressure (DBP)” value [1, 14] was 107 mmHg, the “Heart rate (HR)” value [1, 14] was 154 bpm and the “Diastolic blood pressure (DBP)” value [1, 15] was 107 mmHg. The “Heart rate (HR)” value [1, 15] was 153 bpm, the “Diastolic blood pressure (DBP)” value [1, 16] was 105 mmHg and the “Heart rate (HR)” value [1, 16] was 153 bpm. The “Diastolic blood pressure (DBP)” value [1, 17] was 107 mmHg, the “Heart rate (HR)” value [1, 17] was 159 bpm and the “Heart rate (HR)” value ([1]; -30 min, baseline) was 144 bpm. For the same compound, the “Summary: BP” value ([1]; Table 1 summary, from ISO only to end of experiment) was 71-107 mmHg, the “Summary: BP change” value [1, 18] was 35 mmHg and the “Summary: HR change” value [1, 18] was 38 bpm. For the same compound, the “Systemic beta-blockade” value ([1]; four topical applications, 50 μL, 0.25% solution, 60 minute intervals) was “prolonged systemic beta-blockade”, the “Absorption across the cornea” value ([2]; 0.25% Timolol or 0.5% compound 1, topical) was “rapidly absorbed across the cornea into the AH and I-CBC” and the “Area under the concentration time curve (AUC0-240'), AH” value ([2]; AH, 0-240 min, 0.25% Timolol or 0.5% compound 1) was 9,022 ng/100 μL/min. The “Peak level in aqueous humor (AH)” value ([2]; AH, 0.25% Timolol or 0.5% compound 1) was 131 ng/100 μL, the “Area under the concentration time curve (AUC0-240'), I-CBC” value ([2]; I-CBC, 0-240 min, 0.25% Timolol or 0.5% compound 1) was 533 ng/50 mg/min and the “Peak level in iris-ciliary body complex (I-CBC)” value ([2]; I-CBC, 0.25% Timolol) was 58 ng/50 mg. For the same compound, the “Area under the concentration time curve (AUC0-240'), cornea” value ([2]; cornea, 0-240 min, 0.25% Timolol or 0.5% compound 1) was 68,293 ng/50 mg/min, the Peak cornea level ([2]; cornea, 50 μL onto cornea, 0.25% Timolol or 0.5% compound 1) was 770 ng/50 mg and the Tmax ([2]; aqueous humor, AH, 0.25% Timolol or 0.5% compound 1, read-out: Time of peak level in aqueous humor (AH) (converted)) was 30 min. For the same compound, the Tmax ([2]; iris-ciliary body, I-CBC, 0.25% Timolol, read-out: Time of peak level in I-CBC (converted)) was 30 min and the Tmax ([2]; cornea, 0.25% Timolol or 0.5% compound 1, read-out: Time of peak level in cornea (converted)) was 5 min.

For `CC(C)(CNC(=O)C1CCOC1)NCC(O)COC(=O)c1ccc(O)c(O)c1` (stereo not drawn), the Kb (ATRIA; [4]) was 1.26 nM.

For `CC(=O)NCC(C)(C)NCC(O)COC(=O)c1cc(O)c(O)cc1C` (stereo not drawn) [Me CH3], the Kb (ATRIA; [4]) was 25.1 nM.

In the case of `Cc1cc(O)c(O)cc1C(=O)OCC(O)CNC(C)(C)CNC(=O)C1CCOC1` (stereo not drawn) [drawing 25], the Kb (ATRIA; [3]) is reported as 1.58 nM and the “DOA (duration of action)” value (beta-blocking effects) is reported as 49 min.

Work on `COc1ccc(C(=O)NCC(C)(C)NCC(O)COC(=O)c2cc(O)c(O)cc2C)cc1` (stereo not drawn) yielded a Kb (ATRIA; [4]) of 31.6 nM.

For `COc1ccccc1C(=O)NCC(C)(C)NCC(O)COC(=O)c1cc(O)c(O)cc1C` (stereo not drawn), the Kb (ATRIA; [4]) was 398 nM.

Compound `COc1cc(O)c(O)cc1C(=O)OCC(O)CNC(C)(C)CNC(=O)C1CCCCC1` (stereo not drawn) has a Kb (ATRIA; [4]) of 25.1 nM.

For `Cc1cc(O)c(O)cc1C(=O)OCC(O)CNC(C)(C)CNC(=O)N1CCOCC1` (stereo not drawn), the Kb (ATRIA; [3]) was 2 nM and the “DOA (duration of action)” value (beta-blocking effects) was 60 min.

With `Cc1cc(O)c(O)cc1C(=O)OCC(O)CNC(C)(C)CNC(=O)C1CC1` (stereo not drawn) the Kb (ATRIA; [4]) was 20 nM.

`COc1cc(O)c(O)cc1C(=O)OCC(O)CNC(C)(C)CNC(=O)C(C)C` (stereo not drawn) [drawing 30] showed a Kb (ATRIA; [4]) of 12.6 nM.
